# Where two headings read alike, the source gives them in different places.
# Experiments:
# OVCAR-3 xenograft [1] = details: 50 mg/kg p.o. QD for 28 days, day 45; cited from earlier work
# 44 tumor cell lines [2] = details: matched 44 cell line panel; cited from earlier work
# 44 tumor cell lines [3] = test: NTRC Oncolines proliferation, panel mean; format: cell-based; details: 4-4 cell
# [4] = Liver microsome stability; format: in vitro ADME; details: rat, liver microsomes, pH 7.4
# [5] = Liver microsome stability; format: in vitro ADME; details: human, liver microsomes, pH 7.4
# Pharmacokinetics in mice = details: plasma, 10 mg/kg p.o.
# PI3Kβ = PI3Kβ (Homo sapiens, UniProt P42338); test: DiscoverX KdELECT; details: Inhibitor binding constant Kd PI3Kβ, second PI3K column of Table S2
# PI3Kβ, sequence (P42338 whole entry): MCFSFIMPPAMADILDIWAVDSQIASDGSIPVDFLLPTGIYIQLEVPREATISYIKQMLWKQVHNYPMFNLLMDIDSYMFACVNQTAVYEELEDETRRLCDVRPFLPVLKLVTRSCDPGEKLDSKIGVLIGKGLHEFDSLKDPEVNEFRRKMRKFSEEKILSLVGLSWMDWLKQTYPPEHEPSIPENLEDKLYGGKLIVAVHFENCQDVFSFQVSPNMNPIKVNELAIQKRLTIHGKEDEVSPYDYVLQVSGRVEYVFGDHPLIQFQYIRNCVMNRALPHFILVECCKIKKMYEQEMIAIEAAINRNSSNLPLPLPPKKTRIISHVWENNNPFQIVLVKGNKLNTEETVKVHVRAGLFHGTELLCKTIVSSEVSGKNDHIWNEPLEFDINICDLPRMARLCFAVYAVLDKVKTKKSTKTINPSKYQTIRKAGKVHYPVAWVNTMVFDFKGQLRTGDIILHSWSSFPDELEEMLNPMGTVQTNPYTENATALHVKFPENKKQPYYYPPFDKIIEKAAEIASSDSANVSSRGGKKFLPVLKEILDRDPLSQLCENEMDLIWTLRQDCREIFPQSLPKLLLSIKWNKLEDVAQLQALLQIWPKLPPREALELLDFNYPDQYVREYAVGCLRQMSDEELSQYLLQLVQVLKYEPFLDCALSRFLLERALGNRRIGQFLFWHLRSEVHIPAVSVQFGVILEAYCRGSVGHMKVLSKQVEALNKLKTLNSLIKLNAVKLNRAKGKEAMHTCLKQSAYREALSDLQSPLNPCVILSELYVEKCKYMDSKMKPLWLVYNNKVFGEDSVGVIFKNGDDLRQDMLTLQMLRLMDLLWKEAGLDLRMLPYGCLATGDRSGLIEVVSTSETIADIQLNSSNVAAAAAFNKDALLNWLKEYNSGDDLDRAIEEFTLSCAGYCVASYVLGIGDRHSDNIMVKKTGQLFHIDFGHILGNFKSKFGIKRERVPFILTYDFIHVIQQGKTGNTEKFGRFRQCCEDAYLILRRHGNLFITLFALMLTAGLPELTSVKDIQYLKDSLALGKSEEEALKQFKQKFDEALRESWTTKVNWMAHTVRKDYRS
# [6] = test system: protein and lipid kinases (KINOMEScan panel); test: KINOMEScan panel selectivity; format: binding; details: 10 μM
# OVCAR-3 xenograft [7] = test: OVCAR-3 xenograft model; format: in vivo, BALB/c nude mice; details: 6.3 mg/kg p.o. QD
# PI3Kγ = PI3Kγ (Homo sapiens, UniProt P48736); test: DiscoverX KdELECT; details: Inhibitor binding constant Kd PI3Kγ, fourth PI3K column of Table S2
# PI3Kγ, sequence (P48736 whole entry): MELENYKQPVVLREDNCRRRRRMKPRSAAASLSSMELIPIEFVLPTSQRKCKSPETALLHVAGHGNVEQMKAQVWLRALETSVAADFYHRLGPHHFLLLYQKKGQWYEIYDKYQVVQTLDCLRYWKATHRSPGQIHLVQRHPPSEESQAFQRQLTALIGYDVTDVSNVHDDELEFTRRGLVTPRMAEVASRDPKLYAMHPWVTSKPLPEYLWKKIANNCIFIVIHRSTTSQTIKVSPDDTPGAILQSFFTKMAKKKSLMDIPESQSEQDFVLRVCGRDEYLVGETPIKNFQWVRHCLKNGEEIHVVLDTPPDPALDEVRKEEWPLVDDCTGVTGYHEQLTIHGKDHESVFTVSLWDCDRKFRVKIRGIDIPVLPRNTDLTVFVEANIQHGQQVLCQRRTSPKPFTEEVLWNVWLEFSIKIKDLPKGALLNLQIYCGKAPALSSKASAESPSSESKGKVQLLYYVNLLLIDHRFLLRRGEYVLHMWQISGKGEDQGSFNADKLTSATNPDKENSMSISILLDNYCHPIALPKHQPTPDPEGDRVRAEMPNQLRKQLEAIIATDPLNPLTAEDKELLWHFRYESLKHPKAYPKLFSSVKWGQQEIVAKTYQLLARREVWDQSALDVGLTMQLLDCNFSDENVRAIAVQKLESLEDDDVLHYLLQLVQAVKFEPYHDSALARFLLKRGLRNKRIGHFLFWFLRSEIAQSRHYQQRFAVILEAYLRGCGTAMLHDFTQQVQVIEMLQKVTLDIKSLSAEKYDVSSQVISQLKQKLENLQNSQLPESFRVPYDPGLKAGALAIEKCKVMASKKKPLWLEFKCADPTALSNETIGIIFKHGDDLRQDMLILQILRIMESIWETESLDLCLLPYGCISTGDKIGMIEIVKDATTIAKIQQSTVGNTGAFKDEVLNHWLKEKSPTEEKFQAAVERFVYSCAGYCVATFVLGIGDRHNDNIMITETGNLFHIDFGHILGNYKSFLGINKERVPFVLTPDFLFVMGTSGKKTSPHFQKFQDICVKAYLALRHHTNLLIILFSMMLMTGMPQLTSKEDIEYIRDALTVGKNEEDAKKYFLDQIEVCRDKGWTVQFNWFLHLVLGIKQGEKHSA
# [8] = Liver microsome stability; format: in vitro ADME; details: dog, liver microsomes, pH 7.4
# 66 cancer cell lines = test: NTRC Oncolines proliferation, panel mean; format: cell-based; details: read-out: mean half-maximal growth inhibition (GI50)
# PI3Kα = PI3Kα (Homo sapiens, UniProt P42336); test: DiscoverX KdELECT; details: Inhibitor binding constant Kd PI3Kα, first PI3K column of Table S2
# PI3Kα, sequence (P42336 whole entry): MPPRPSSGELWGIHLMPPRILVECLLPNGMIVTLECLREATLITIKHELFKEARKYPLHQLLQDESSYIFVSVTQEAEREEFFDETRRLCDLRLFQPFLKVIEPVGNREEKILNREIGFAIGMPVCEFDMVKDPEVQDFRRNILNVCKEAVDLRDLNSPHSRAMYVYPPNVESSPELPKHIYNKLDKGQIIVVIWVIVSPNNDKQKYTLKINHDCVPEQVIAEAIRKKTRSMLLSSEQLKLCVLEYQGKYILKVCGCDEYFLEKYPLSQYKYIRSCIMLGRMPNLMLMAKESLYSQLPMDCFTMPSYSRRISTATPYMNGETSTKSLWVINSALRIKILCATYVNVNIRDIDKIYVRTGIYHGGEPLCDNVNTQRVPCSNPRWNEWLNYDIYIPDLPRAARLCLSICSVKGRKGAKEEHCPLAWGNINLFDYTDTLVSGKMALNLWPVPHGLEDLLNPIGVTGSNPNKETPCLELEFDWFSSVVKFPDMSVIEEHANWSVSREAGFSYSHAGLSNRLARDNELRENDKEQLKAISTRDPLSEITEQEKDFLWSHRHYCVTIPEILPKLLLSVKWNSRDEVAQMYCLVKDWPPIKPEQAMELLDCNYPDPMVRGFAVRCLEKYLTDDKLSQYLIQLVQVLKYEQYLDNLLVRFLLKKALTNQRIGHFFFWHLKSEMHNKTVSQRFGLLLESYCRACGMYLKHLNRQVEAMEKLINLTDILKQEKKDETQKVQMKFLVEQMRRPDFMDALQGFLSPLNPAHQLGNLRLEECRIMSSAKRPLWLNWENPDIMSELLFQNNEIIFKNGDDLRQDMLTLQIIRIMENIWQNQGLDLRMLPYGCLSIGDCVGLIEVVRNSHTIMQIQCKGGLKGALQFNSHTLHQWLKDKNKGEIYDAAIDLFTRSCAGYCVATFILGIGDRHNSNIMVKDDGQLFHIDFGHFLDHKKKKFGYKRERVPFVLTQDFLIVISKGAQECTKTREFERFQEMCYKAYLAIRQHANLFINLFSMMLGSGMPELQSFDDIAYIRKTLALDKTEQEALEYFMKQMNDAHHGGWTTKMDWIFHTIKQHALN
# [9] = test system: CEREP BioPrint (P22-p) panel; test: CEREP BioPrint; format: binding; details: 10 μM
# PI3Kδ = target: T1, PI3Kδ (Homo sapiens, UniProt O00329); test: DiscoverX KdELECT; details: Inhibitor binding constant Kd PI3Kδ, third PI3K column of Table S2
# T1 sequence (O00329 1-1044): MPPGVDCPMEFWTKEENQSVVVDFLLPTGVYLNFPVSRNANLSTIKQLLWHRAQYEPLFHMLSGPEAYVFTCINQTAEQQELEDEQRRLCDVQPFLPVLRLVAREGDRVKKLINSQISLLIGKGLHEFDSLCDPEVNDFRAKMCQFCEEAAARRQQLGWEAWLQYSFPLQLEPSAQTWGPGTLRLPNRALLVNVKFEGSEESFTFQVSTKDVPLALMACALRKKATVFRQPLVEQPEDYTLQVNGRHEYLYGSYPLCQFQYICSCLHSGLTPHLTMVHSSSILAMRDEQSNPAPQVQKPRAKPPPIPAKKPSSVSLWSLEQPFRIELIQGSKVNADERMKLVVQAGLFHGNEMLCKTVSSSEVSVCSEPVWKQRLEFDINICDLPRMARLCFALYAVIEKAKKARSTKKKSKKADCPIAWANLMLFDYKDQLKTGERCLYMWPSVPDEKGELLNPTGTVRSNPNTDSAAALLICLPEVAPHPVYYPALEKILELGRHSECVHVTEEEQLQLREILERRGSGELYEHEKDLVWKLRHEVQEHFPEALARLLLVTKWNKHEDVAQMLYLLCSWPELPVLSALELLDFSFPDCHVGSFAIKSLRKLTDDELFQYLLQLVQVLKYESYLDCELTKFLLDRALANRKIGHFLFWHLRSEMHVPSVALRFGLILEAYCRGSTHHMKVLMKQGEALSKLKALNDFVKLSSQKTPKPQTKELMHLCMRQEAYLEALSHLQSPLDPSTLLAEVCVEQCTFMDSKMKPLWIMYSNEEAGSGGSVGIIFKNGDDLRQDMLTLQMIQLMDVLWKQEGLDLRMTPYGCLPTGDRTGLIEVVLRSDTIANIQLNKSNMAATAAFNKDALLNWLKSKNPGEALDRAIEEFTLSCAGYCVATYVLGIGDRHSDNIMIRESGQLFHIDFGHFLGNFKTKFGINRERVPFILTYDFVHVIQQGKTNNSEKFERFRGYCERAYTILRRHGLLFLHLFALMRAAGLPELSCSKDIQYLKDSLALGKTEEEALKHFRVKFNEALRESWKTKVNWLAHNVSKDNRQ
Compound,mean tumor size (OVCAR-3 xenograft [1]) [mm^3],GI50 (44 tumor cell lines [2]) [nM],GI50 (44 tumor cell lines [3]) [nM],"remaining at 0.5 h, 1 µM [4] [%]","remaining at 0.5 h, 1 µM [5] [%]",Cl (Pharmacokinetics in mice) [mL/min/kg],Kd (PI3Kβ) [nM],interference with protein kinase activities [6],body weight / tolerability (OVCAR-3 xenograft [7]),tumor weight analysis vs vehicle (OVCAR-3 xenograft [7]; day 45),Kd (PI3Kγ) [nM],"remaining at 0.5 h, 1 µM [8] [%]",GI50 (66 cancer cell lines) [nM],Kd (PI3Kα) [nM],off-target interactions [9],Kd (PI3Kδ) [nM]
"Nc1cc(C(F)(F)F)c(-c2nc(N3CCOCC3)nc(N3CCOCC3)n2)cn1 [PQR309 (1), 5-(4,6-Dimorpholino-1,3,5-triazin-2-yl)-4-(trifluoromethyl)pyridin-2-amine]",571,~1000,,,,,,,,,,,,,,
Nc1ncc(-c2nc(N3CCOCC3)nc(N3CCOCC3)n2)c(C(F)F)n1 [PQR514 (4)],,,240,109 ± 10.7,87.2 ± 3.5,15.6,< 7,negligible interference with protein kinase activities,no significant body weight loss was observed,significantly inhibited tumor growth,< 7,92.7 ± 0.2,250,< 7,"With the exception of human PDE3A (phosphodiesterase 3A), no or very weak interactions were detected",< 7
"C[C@H]1COCCN1c1nc(-c2cnc(N)cc2C(F)F)nc(N2CCOCC2)n1 [PQR530 (16), (S)-4-(Difluoromethyl)-5-(4-(3-methylmorpholino)-6-morpholino-1,3,5-triazin-2-yl)p yridin-2-amine]",,~400,,,,,,,,,,,,,,

# Source: article PMC6792169 (ACS Medicinal Chemistry Letters, 2019)
